In patent US5747538A, “Use of ginsenoside R0 or a plant extract containing same to promote collagen synthesis” (priority 1994, dated 1998):
Like-named read-outs stand apart in the source and are kept apart here.

Assays:
collagen III = test: ELISA measurement of collagen III synthesis in fibroblast culture, 72 h; format: cell-based; settings: Homo sapiens, read-out: stimulation of synthesis of collagen III
Protocol: The protocol is the same as that described with collagen I except that the ELISA is directed against collagen III (human) and the culture treatment time is 72 h instead of the 48 h with collagen I.

collagen I = test: ELISA measurement of collagen I synthesis (collagen I secreted into the medium) in fibroblast culture, 48 h; format: cell-based, human; settings: for ng collagen I/10^4 cells/48 h: mean±SD, control 2004 ± 132; for ng coll. I/10,000 HF/48 h: control (Asc. 25 μM + DMSO 0.1%) 2466 ± 289
Protocol: An ELISA method is used to measure collagen I synthesis, with and without treatment, on a culture of fibroblasts originating from a face lift performed on a person.
a.1) Fibroblast cultures:
The fibroblasts are cultivated by the explant method up to the point of confluence, at 37° C., in a medium consisting of a mixture of E199-C medium and 10% fetal calf serum, in a humidity-saturated atmosphere containing 5% of CO2.
Then, after detachment with an isotonic solution containing 0.1% of trypsin and 0.02% of EDTA, buffered to pH 7.2, the cells are inoculated into 96-well microplates (FALCON) at a rate of 10^4 cells per well in an E199-C medium containing 2% of serum.
After 24 h this medium is replaced, for 48 h of incubation, with the same medium without serum and containing 25 μM sodium ascorbate (incubation medium), with or without the test products. The products, solubilized in DMSO, are added to the culture medium at different concentrations.
a.2) Assay of collagen I:
The amount of collagen I secreted into the medium after 48 h of incubation with or without the products was determined by means of an ELISA (Enzyme-Linked Immuno Sorbent Assay) test.
The incubation medium is collected and transferred to the wells of a microtiter plate (Nunc Immunoplate) containing protease inhibitors. Incubation for 24 h at 4° C. allows the collagen to adhere to the plastic. The plates are then rinsed with PBS (Phosphate Buffered Saline).
After 24 h of incubation at 4° C. with serum albumin to prevent non-specific antibody-plastic binding, anti-human collagen I rabbit antibodies (Institut Pasteur, Lyon, France) are added over 1.5 h at 22° C. After rinsing with PBS, the bound antibodies are disclosed with anti-rabbit IgG goat antibodies (INTERCHIM, Montlugon, France) conjugated with an alkaline phosphatase, which, in the presence of paranitrophenyl phosphate, will produce a paranitrophenol absorbing at 405 nm.
The optical densities obtained are converted to nanograms of collagen using a calibration curve established under the same experimental conditions with purified human collagen I (Institut Jacques Boy, France).
a.3) Statistical interpretation:
The amounts of collagen (mean±standard deviation) secreted by the treated and untreated cells are compared by means of a Student t test. The significance level is taken as 0.05.
b.1) The protocol described above is applied in order to study the effect of the concentration of ginsenoside R0 on the stimulation of collagen I synthesis.
Table 1 gives the results obtained with compositions respectively containing 0, 1, 2.5 and 10 μg of ginsenoside R0 per ml.

CC1(C)CC[C@]2(C(=O)O[C@@H]3O[C@H](CO)[C@@H](O)[C@H](O)[C@H]3O)CC[C@]3(C)C(=CC[C@@H]4[C@@]5(C)CC[C@H](O[C@@H]6O[C@H](C(=O)O)[C@@H](O)[C@H](O)[C@H]6O[C@@H]6O[C@H](CO)[C@@H](O)[C@H](O)[C@H]6O)C(C)(C)[C@@H]5CC[C@]43C)[C@@H]2C1 [ginsenoside R0]
activation at 2.5 µg/mL (collagen III; 2.5 μg/ml): 33%
activation at 10 µg/mL (collagen III; 10 μg/ml): 81%
activation at 1 µg/mL (collagen I; Homo sapiens, Fibroblast, 48 h, Table 1, 1 μg/ml, S: significant at the 0.05 level, read-out: Stimulation of synthesis (collagen I)): 8%
activation at 2.5 µg/mL (collagen I; Homo sapiens, Fibroblast, 48 h, Table 1, 2.5 μg/ml, S: significant at the 0.05 level, read-out: Stimulation of synthesis (collagen I)): 29%
activation at 10 µg/mL (collagen I; Homo sapiens, Fibroblast, 48 h, Table 1, 10 μg/ml, S: significant at the 0.05 level, read-out: Stimulation of synthesis (collagen I)): 44%
activation at 1 µg/mL (collagen I; Homo sapiens, Fibroblast, 48 h, Table 2, 1 μg/ml, Example 1 S (p = 0.021), Example 2 S (p = 0.0006), ginsenoside R0 NS, read-out: % stimulation/control (collagen I)): 1%
activation at 1.5 µg/mL (collagen I; Homo sapiens, Fibroblast, 48 h, Table 2, 1.5 μg/ml, S (p = 0.024), read-out: % stimulation/control (collagen I)): 43%
activation at 10 µg/mL (collagen I; Homo sapiens, Fibroblast, 48 h, Table 2, 10 μg/ml, Example 1 S (p = 0.003), Example 2 S (p = 0.0006), ginsenoside R0 S (p = 0.002), read-out: % stimulation/control (collagen I)): 66%
ng collagen I/10^4 cells/48 h (collagen I; Table 1, 1 μg/ml): 2172 ± 88 ng collagen I/10^4 cells/48 h
ng collagen I/10^4 cells/48 h (collagen I; Table 1, 2.5 μg/ml): 2599 ± 163 ng collagen I/10^4 cells/48 h
ng collagen I/10^4 cells/48 h (collagen I; Table 1, 10 μg/ml): 2889 ± 74 ng collagen I/10^4 cells/48 h
ng coll. I/10,000 HF/48 h (collagen I; Table 2, 1 μg/ml): 2482 ± 276 ng coll. I/10,000 HF/48 h
ng coll. I/10,000 HF/48 h (collagen I; Table 2, 1.5 μg/ml): 3529 ± 516 ng coll. I/10,000 HF/48 h
ng coll. I/10,000 HF/48 h (collagen I; Table 2, 10 μg/ml): 4099 ± 480 ng coll. I/10,000 HF/48 h
